In one series the test system is rats. Nature of the series: Single dose toxicity study in rat. The class given is in vivo. Particulars: single oral dose 700 mg/kg. As for the experimental part:
Toxicity testing required about 5 g of the thiodipeptide, Ala-ΨS-Ser.tfa (trifluoroacetate salt), which was delivered to rats as test subjects.
Single oral dose of 700 mg/kg to 5 males and 5 females on day 1.
Test Substance Formulation: The dose formulation was successfully prepared using physiological saline as the vehicle. The concentration of the test substance was 140 mg/ml, dosed at a volume of 5 ml/kg, resulting in a dose of 700 mg/kg.

The next series in a line: Resistance to hydrolysis. The class given is in vitro ADME.
Series [1] concerns the target T1, PepT1 (Oryctolagus cuniculus, UniProt P36836).
T1 construct: expressed in transfected cells
T1 sequence (P36836 1-707): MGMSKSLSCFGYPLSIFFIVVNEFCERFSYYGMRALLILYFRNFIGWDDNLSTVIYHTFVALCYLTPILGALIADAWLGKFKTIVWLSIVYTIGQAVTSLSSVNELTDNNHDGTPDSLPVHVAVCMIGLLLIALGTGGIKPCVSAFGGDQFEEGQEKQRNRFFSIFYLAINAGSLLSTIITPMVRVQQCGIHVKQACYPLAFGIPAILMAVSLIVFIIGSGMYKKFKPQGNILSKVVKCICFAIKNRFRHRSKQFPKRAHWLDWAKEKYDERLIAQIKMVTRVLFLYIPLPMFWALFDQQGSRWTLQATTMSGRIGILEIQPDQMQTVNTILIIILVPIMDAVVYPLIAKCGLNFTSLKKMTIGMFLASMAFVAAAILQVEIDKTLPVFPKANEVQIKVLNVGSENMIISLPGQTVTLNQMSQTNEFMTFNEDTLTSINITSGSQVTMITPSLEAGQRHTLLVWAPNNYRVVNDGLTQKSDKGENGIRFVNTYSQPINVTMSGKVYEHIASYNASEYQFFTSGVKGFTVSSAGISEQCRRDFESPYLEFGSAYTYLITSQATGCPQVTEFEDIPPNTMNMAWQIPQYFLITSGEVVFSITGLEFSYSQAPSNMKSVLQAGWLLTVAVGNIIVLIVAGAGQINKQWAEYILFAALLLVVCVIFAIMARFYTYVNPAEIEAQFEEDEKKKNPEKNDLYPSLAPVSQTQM
Nature of the series: Uptake of [3H]-D-Phe-L-Gln in oocytes in competition with test compound (binding to PepT1). As for the experimental part:
Uptake of the radiolabelled dipeptide [^3H]-D-Phe-L-Gln (17.4 Ci/mmole, custom synthesised, Cambridge Research Biochemicals, Stockton-on-Tees, UK) in competition with the compounds to be tested, was performed as previously described (Meredith et al. J. Physiol., 1998, 512, 629-634). Briefly, 5 oocytes were incubated at room temperature in 100 μL of uptake medium (95 mM NaCl, 2 mM KCl, 1 mM CaCl2, 0.42 mM MgCl2, 10 mM Tris/Mes pH 5.5) with tracer (0.4 μM) [^3H]-D-Phe-L-Gln with or without a test compound at the appropriate concentration. After incubation for one hour, the oocytes were washed sequentially five times in 1 mL of ice-cold uptake medium, then lysed individually with 100 μL 2% (w/v) SDS in vials, and liquid scintillation counted.
Quantitative binding data has been produced for a large number of thiodipeptide carriers with attached drug surrogates using the methodology described in Meredith et al., 1998, discussed supra, and is shown in Table 2 below, and in FIG. 7. Each of the thiopeptide carrier molecules shown is in accordance with the present invention, with each compound comprising a serine amino acid side chain group on the second amino acid residue.

For series [2], the target named is T1, PepT1. Put plainly: Efflux / trans-stimulation assay in PepT1-expressing oocytes injected with [3H]-D-Phe-L-Gln. The class given is cell-based. On the procedure:
Efflux experiments were performed as described in Temple et al., J. Biol. Chem., 1998, 273, 20-22. Briefly, PepT1-expressing oocytes were micro-injected with 4.6 nl of [^3H]-D-Phe-L-Gln (17.4 Ci/mmole) and allowed to recover for 15 minutes. 5 oocytes were incubated in […] uptake solution (pH 5.5) containing a potential substrate (i.e. a thiodipeptide-drug analogue conjugate) at 10 mM, with a negative control (i.e. uptake solution pH 5.5) and a positive control (i.e. 20 mM dipeptide Gly-Gln in pH 5.5 uptake solution). After 90 minutes incubation at room temperature, 50 μL of the medium was removed and placed in a scintillation vial for counting. The oocytes were washed sequentially five times in 1 mL of ice-cold uptake medium, then lysed individually with 100 μL 2% (w/v) SDS in vials, and liquid scintillation counted.
Efflux of the radiolabelled dipeptide is a positive indication of active transport via PepT1.
In the assays carried out, the dipeptide Gly-Gln (which is known to be transported by PepT1) caused about 30% of labelled D-Phe-L-Gln to remain in the oocytes. At the same concentration, the test substrates (the conjugates being tested) are assessed as follows:—
<(measureable efflux, but less transport than Gly-Gln control, with ≧50% of D-Phe-L-Gln remaining)
=(efflux similar to the effect of Gly-Gln, i.e. 25-50% of labelled D-Phe-L-Gln remaining)
>(more efflux than Gly-Gln, i.e. <25% of labelled D-Phe-L-Gln remaining)
There are no reports in the literature of thiodipeptides attached to drugs or drug analogues, and therefore no examples of such conjugates being actively transported.

Series [3] has as its target T2, PepT1 (Rattus norvegicus, UniProt P51574).
T2 construct: using rat jejenum; from tissue; host or cells: rat jejunum
T2 sequence (P51574 1-710): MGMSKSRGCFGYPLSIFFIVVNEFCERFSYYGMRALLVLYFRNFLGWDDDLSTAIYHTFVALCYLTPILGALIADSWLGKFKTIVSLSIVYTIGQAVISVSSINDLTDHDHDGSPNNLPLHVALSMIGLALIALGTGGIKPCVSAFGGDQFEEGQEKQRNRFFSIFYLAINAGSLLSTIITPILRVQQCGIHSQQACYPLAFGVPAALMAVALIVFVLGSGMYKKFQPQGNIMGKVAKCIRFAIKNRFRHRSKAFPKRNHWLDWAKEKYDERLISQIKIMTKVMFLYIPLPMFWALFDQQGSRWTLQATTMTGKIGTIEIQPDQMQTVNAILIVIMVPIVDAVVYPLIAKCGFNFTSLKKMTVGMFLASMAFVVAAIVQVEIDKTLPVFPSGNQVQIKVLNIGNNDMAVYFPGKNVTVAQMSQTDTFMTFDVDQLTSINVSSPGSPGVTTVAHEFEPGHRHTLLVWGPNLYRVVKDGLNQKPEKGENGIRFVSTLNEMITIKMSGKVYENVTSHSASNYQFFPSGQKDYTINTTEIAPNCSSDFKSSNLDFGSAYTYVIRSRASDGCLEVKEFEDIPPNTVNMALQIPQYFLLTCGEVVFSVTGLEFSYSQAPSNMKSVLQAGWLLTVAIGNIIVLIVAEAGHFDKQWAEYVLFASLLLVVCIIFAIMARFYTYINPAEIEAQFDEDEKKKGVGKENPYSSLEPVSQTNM
Put plainly: In vivo transport across the gut wall, rat jejenum, HPLC analysis. Particulars: 1 mM. The source says:
(§1) In vivo transport experiments, using the methodology described in Lister et al. (J. Physiol., 1995, 484.1, 173-182), were used to investigate the importance of the thio group in the compounds according to the invention during transport of thiopeptides across the gut wall. […] For the purposes of this experiment, this thiopeptide was not conjugated to a drug analogue molecule. Then, using rat jejenum, they carried out direct measurements of transport of this test thiopeptide across the gut wall. […]

In series [4] the test system is PepT1. Described as above.
From the text: as §1

This note sets out measurements from patent US8772248B2, “Drug delivery system” (Keele University, priority 2004, dated 2014).

Peptide text beside a SMILES is read from it.

As to `CC(N)C(=S)N[C@@H](CO)C(=O)O.O=C(O)C(F)(F)F` (stereo partly shown) [Ala-ΨS-Ser.tfa], the Intercurrent deaths result with rats (15 days) is on record as “no intercurrent deaths”. Further, the Clinical observations entry in the series with rats (daily for 15 days) was “no treatment related findings”. In the series with rats (day 15), the Bodyweights entry is recorded as “All animals had gained weight” and the “Macroscopic findings at scheduled termination” value is on record as “no macroscopic findings”.

Take `CC(N)C(=S)NC(COCc1ccccc1)C(=O)O` [D-Ala-ΨS-Ser(OBn)]: the resistance to hydrolysis entry in the series “Resistance to hydrolysis” is reported as “more hydrolysis resistant than its corresponding L-isomer”. In addition, on PepT1 [1], the “substrate for PepT1” value is listed as “substrate for PepT1”. Besides, the Ki (as a rule, the dissociation constant of the complex between target and ligand, obtained from inhibition or displacement) at PepT1 [1] (competition with 0.4 μM [3H]-D-Phe-L-Gln, oocytes, pH 5.5, one hour) was 1.07 mM.

In the case of `NCC(=O)N[C@@H](CCC(N)=O)C(=O)O` [Gly-Gln] (H-Gly-Gln-OH), the “cpm remaining in oocytes” value on PepT1 [2] (10 mM, average from 5 experiments) was 1347 (+/−126) cpm. Moreover, the efflux at PepT1 [2] (at 10 mM) was 72%. In addition, at PepT1 [2] (positive control Gly-Gln, pH 5.5, 90 minutes), the “labelled D-Phe-L-Gln remaining in the oocytes” value is “about 30%”.

For `C[C@H](NC(=S)[C@@H](N)Cc1ccccc1)C(=O)O` [thiopeptide analogue of L-Phe-L-Ala, Phe-ΨS-Ala], on PepT1 [3], the transport rate is on record as 3.09 (+/−0.047) micromol/min/g of whole dry intestine and the “transport rate relative to control dipeptide D-Phe-L-Gln” value is given as “about 13 times”. For the same compound, the “resistance to peptidases of the small intestine” value with PepT1 [4] is “resistant to the peptidases”.
